Experimental data from publication PMC3072462 (Journal of medicinal chemistry, 2011).
pEC50, pIC50: −log10 of the molar value. Several values for one entry are separate records, joined by “and”; a condition that tells them apart may be missing. Equal values may be shown once. Read-outs that look alike come from different tables or passages of the source.

Experiments:
[1] = system: HIV IN mutant Y143R; settings: values from two independent experiments
[2] = system: HIV IN mutant Y143R; settings: values from two independent experiments; cited from earlier work
[3] = biological target: T1, recombinant HIV-1 IN (ST) (Human immunodeficiency virus type 1 group M subtype B, UniProt P04585); experiment: In vitro integrase catalytic gel assay, strand transfer; type: biochemical
[4] = biological target: T2, recombinant HIV-1 IN (3′P) (Human immunodeficiency virus type 1 group M subtype B, UniProt P04585); settings: read-out: IN IC50 3′P, gel assay; cited from earlier work
[5] = system: CEM-SS cells; settings: single concentration 10 μM; cited from earlier work
[6] = system: raltegravir-resistant HIV-1 strain 1556-1 (Y143C); settings: virus 1556-1, Y143C; NL4-3 based, MT-4 cells; cited from earlier work
[7] = system: HIV-1IIIB; settings: HIV-1IIIB in CEM-SS cells, cited from earlier work
[8] = biological target: T2, recombinant HIV-1 IN (3′P); experiment: In vitro integrase catalytic gel assay, 3′ processing; type: biochemical
[9] = Compound cytotoxicity / cell viability in CEM-SS cells; type: cell-based; settings: human
[10] = system: HIV-1IIIB; experiment: HIV cytoprotection; settings: for TI (therapeutic index, CC50/EC50): HIV-1IIIB in CEM-SS cells; for activity against HIV-1 (in words): 10 μM, CEM-SS cells
[11] = system: MT-4 cells; type: cell-based; settings: human
[12] = biological target: T1, recombinant HIV-1 IN (ST); settings: cited from earlier work
[13] = system: HIV-1NL4-3 strain K103N; experiment: Antiviral assay with NNRTI-resistant strain in MAGI R5 cells; type: cell-based; settings: HIV-1NL4-3 K103N (NNRTI resistance)
[14] = system: HIV-1NL4-3 strain Y181C; experiment: as above; type: cell-based; settings: HIV-1NL4-3 Y181C (NNRTI resistance)

Cc1nnc(C(=O)NC(C)(C)c2nc(C(=O)NCc3ccc(F)cc3)c(O)c(=O)n2C)o1 [Compound 1, raltegravir, reference compound]
Fold-resistance IC50(mutant)/IC50(WT) [1]: 28

CC(C)c1c(Cc2ccccc2)n(COCc2ccc(F)cc2)c(=O)n(O)c1=O [Compound 4, 6-Benzyl-1-((4-fluorobenzyloxy)methyl)-3-hydroxy-5-isopropylpyrimidine-2,4(1H,3H)-dione]
Fold-resistance IC50(mutant)/IC50(WT) [2]: 7 and 4
fold improvement in IN inhibition over the unsubstituted compound 11 ([3]; ST, 4 vs 11): 6 fold
pIC50 [4]: < 3.95
Cell Viability (%) [5]: 100%
Fold-resistance EC50(mutant)/EC50(WT) [6]: 5.9
TI (therapeutic index, CC50/EC50) [7]: >833
pEC50 ([7]; read-out: EC50 (concentration inhibiting virus replication by 50%), dose response): 7.62
CPE Reduction (%) ([7]; single concentration 10 μM): 100%

CC(C)c1c(Cc2ccccc2)n(COCc2ccc(F)cc2)c(=O)[nH]c1=O [Compound 9, 6-Benzyl-1-((4-fluorobenzyloxy)methyl)-5-isopropylpyrimidine-2,4(1H,3H)-dione]
pIC50 [8]: < 3.95

CC(C)c1c(Cc2ccccc2)n(COCc2ccc(F)cc2)c(=O)n(C)c1=O [Compound 10, 6-Benzyl-1-((4-fluorobenzyloxy)methyl)-5-isopropyl-3-methylpyrimidine-2,4(1H,3H)-dione]
pIC50 [8]: < 3.95

CC(C)c1c(Cc2ccccc2)n(COCc2ccccc2)c(=O)n(O)c1=O [Compound 11, 6-Benzyl-1-(benzyloxymethyl)-3-hydroxy-5-isopropylpyrimidine-2,4(1H,3H)-dione]
pIC50 [4]: < 3.95

CC(C)c1c(Cc2ccccc2)n(COCc2ccc(F)cc2F)c(=O)n(O)c1=O [Compound 12, 6-Benzyl-1-((2,4-difluorobenzyloxy)methyl)-3-hydroxy-5-isopropylpyrimidine-2,4(1H,3H)-dione]
pIC50 [8]: < 3.95
viability at 6 days, 10 µM [9]: 100%
TI (therapeutic index, CC50/EC50) [10]: >47

CC(C)c1c(Cc2ccccc2)n(COCc2cccc(Cl)c2F)c(=O)n(O)c1=O [Compound 13, 6-Benzyl-1-((3-chloro-2-fluorobenzyloxy)methyl)-3-hydroxy-5-isopropylpyrimidine-2,4(1H,3H)-dione]
pIC50 [8]: < 3.95
viability at 6 days, 10 µM [9]: 100%
Fold-resistance IC50(mutant)/IC50(WT) [1]: 7
TC50 (toxicity observed) [11]: c Toxicity observed (TC50 = 2.0 μM).
TI (therapeutic index, CC50/EC50) [10]: >105

COn1c(=O)c(C(C)C)c(Cc2ccccc2)n(COCc2ccc(F)cc2)c1=O [Compound 14, 6-Benzyl-1-((4-fluorobenzyloxy)methyl)-5-isopropyl-3-methoxypyrimidine-2,4(1H,3H)-dione]
pIC50 [8]: < 3.95

CC(C)c1c(Cc2ccccc2)n(COCc2ccccc2)c(=O)n(N)c1=O [Compound 15, 3-Amino-6-benzyl-1-(benzyloxymethyl)-5-isopropylpyrimidine-2,4(1H,3H)-dione]
inhibitory activity against IN (in words) [12]: completely devoid of inhibitory activity
pIC50 [4]: < 3.95

CC(C)c1c(Cc2ccccc2)n(COCCc2ccc(F)cc2)c(=O)n(O)c1=O [Compound 28, 6-Benzyl-1-((4-fluorophenethoxy)methyl)-3-hydroxy-5-isopropylpyrimidine-2,4(1H,3H)-dione]
pIC50 [8]: < 3.95

CC(C)c1c(Cc2ccccc2)n(COCCCc2ccc(F)cc2)c(=O)n(O)c1=O [Compound 29, 6-Benzyl-1-((3-(4-fluorophenyl)propoxy)methyl)-3-hydroxy-5-isopropylpyrimidine-2,4(1H,3H)-dione]
pIC50 [8]: < 3.95

CC(C)c1c(Cc2ccccc2)n(COCCCCc2ccc(F)cc2)c(=O)n(O)c1=O [Compound 30, 6-Benzyl-1-((4-(4-fluorophenyl)butoxy)methyl)-3-hydroxy-5-isopropylpyrimidine-2,4(1H,3H)-dione]
pIC50 [8]: < 3.95

CC(C)c1c(Cc2ccccc2)n(Cc2ccc(F)cc2)c(=O)n(O)c1=O [Compound 32, 6-Benzyl-1-(4-fluorobenzyl)-3-hydroxy-5-isopropylpyrimidine-2,4(1H,3H)-dione]
pIC50 [8]: < 3.95

CC(C)c1c(Cc2ccccc2)n(CCc2ccc(F)cc2)c(=O)n(O)c1=O [Compound 42, 6-Benzyl-1-(4-fluorophenethyl)-3-hydroxy-5-isopropylpyrimidine-2,4(1H,3H)-dione]
pIC50 [8]: < 3.95

CC(C)c1c(Cc2ccccc2)n(CCCc2ccc(F)cc2)c(=O)n(O)c1=O [Compound 43, 6-Benzyl-1-(3-(4-fluorophenyl)propyl)-3-hydroxy-5-isopropylpyrimidine-2,4(1H,3H)-dione]
pIC50 [8]: < 3.95
activity against HIV-1 (in words) [10]: only marginal activity

CC(C)c1c(Cc2ccccc2)n(CCCCc2ccc(F)cc2)c(=O)n(O)c1=O [Compound 44, 6-Benzyl-1-(4-(4-fluorophenyl)butyl)-3-hydroxy-5-isopropylpyrimidine-2,4(1H,3H)-dione]
pIC50 [8]: < 3.95
activity against HIV-1 (in words) [10]: only marginal activity

CCc1c(Cc2ccccc2)c(=O)[nH]c(=O)n1COCc1ccccc1 [Compound 49, 5-Benzyl-1-(benzyloxymethyl)-6-ethylpyrimidine-2,4(1H,3H)-dione]
viability at 6 days, 10 µM [9]: 100%

CC(C)c1c(Cc2ccc(F)cc2)n(COCc2ccccc2)c(=O)n(O)c1=O [Compound 51, 1-(Benzyloxymethyl)-6-(4-fluorobenzyl)-3-hydroxy-5-isopropylpyrimidine-2,4(1H,3H)-dione]
pIC50 [8]: < 3.95
viability at 6 days, 10 µM [9]: 100%
TI (therapeutic index, CC50/EC50) [10]: >18

CC(C)c1c(Cc2ccc(F)cc2)n(COCc2ccc(F)cc2)c(=O)n(O)c1=O [Compound 52, 6-(4-Fluorobenzyl)-1-((4-fluorobenzyloxy)methyl)-3-hydroxy-5-isopropylpyrimidine-2,4(1H,3H)-dione]
pIC50 [8]: < 3.95

CCc1c(Cc2ccccc2)n(COCc2ccccc2)c(=O)n(O)c1=O [Compound 53, 6-Benzyl-1-(benzyloxymethyl)-5-ethyl-3-hydroxypyrimidine-2,4(1H,3H)-dione]
pIC50 [8]: < 3.95

Cc1cn(COCc2ccccc2)c(=O)n(O)c1=O [Compound 54, 1-(Benzyloxymethyl)-3-hydroxy-5-methylpyrimidine-2,4(1H,3H)-dione]
pIC50 [8]: < 3.95

CCc1c(Cc2ccccc2)c(=O)n(O)c(=O)n1COCc1ccccc1 [Compound 55, 5-Benzyl-1-(benzyloxymethyl)-6-ethyl-3-hydroxypyrimidine-2,4(1H,3H)-dione]
pIC50 [8]: < 3.95
fold increase of IC50 value on swapping C5 and C6 substituents ([3]; ST, 55 vs 53): 4 fold

CCc1c(Cc2ccccc2)c(=O)n(O)c(=O)n1COCc1ccc(F)cc1 [Compound 56, 5-Benzyl-6-ethyl-1-((4-fluorobenzyloxy)methyl)-3-hydroxypyrimidine-2,4(1H,3H)-dione]
pIC50 [8]: < 3.95

CC(C)c1c(Cc2ccc(F)cc2)n(Cc2ccccc2)c(=O)n(O)c1=O [Compound 64, 1-Benzyl-6-(4-fluorobenzyl)-3-hydroxy-5-isopropylpyrimidine-2,4(1H,3H)-dione]
pIC50 [8]: < 3.95

CC(C)c1c(Cc2ccc(F)cc2)n(Cc2ccc(F)cc2)c(=O)n(O)c1=O [Compound 65, 1,6-Bis(4-fluorobenzyl)-3-hydroxy-5-isopropylpyrimidine-2,4(1H,3H)-dione]
pIC50 [8]: < 3.95

CC(C)c1c(Cc2ccccc2)n(Cc2ccccc2)c(=O)n(O)c1=O [Compound 66, 1,6-Bibenzyl-3-hydroxy-5-isopropylpyrimidine-2,4(1H,3H)-dione]
pIC50 [8]: < 3.95

CCc1c(Cc2ccccc2)n(Cc2ccccc2)c(=O)n(O)c1=O [Compound 67, 1,6-Bibenzyl-5-ethyl-3-hydroxypyrimidine-2,4(1H,3H)-dione]
pIC50 [8]: < 3.95
inhibitory activity against IN (in words) [3]: complete loss of inhibition

CCc1c(Cc2ccccc2)n(Cc2ccc(F)cc2)c(=O)n(O)c1=O [Compound 68, 6-Benzyl-5-ethyl-1-(4-fluorobenzyl)-3-hydroxypyrimidine-2,4(1H,3H)-dione]
pIC50 [8]: < 3.95

Cc1cn(Cc2ccccc2)c(=O)n(O)c1=O [Compound 69, 1-Benzyl-3-hydroxy-5-methylpyrimidine-2,4(1H,3H)-dione]
pIC50 [8]: < 3.95

Cc1cn(Cc2ccc(F)cc2)c(=O)n(O)c1=O [Compound 70, 1-(4-Fluorobenzyl)-3-hydroxy-5-methylpyrimidine-2,4(1H,3H)-dione]
pIC50 [8]: < 3.95

O=c1c2ccccc2n(Cc2ccccc2)c(=O)n1O [Compound 75]
pIC50 [8]: < 3.95
pIC50 [3]: < 3.95
inhibitory activity against IN (in words) [3]: completely inactive

O=c1c2ccccc2n(Cc2ccc(F)cc2)c(=O)n1O [Compound 76]
pIC50 [8]: < 3.95
pIC50 [3]: < 3.95
inhibitory activity against IN (in words) [3]: completely inactive

CC(C)c1c(Cc2ccccc2)n(COCc2ccccc2)c(=O)[nH]c1=O [TNK-651]
fold-resistance [13]: 22
fold-resistance [14]: 72
